The target of one test is T1, Glucocorticoid receptor (Homo sapiens, UniProt P04150).
T1 sequence (P04150 whole entry): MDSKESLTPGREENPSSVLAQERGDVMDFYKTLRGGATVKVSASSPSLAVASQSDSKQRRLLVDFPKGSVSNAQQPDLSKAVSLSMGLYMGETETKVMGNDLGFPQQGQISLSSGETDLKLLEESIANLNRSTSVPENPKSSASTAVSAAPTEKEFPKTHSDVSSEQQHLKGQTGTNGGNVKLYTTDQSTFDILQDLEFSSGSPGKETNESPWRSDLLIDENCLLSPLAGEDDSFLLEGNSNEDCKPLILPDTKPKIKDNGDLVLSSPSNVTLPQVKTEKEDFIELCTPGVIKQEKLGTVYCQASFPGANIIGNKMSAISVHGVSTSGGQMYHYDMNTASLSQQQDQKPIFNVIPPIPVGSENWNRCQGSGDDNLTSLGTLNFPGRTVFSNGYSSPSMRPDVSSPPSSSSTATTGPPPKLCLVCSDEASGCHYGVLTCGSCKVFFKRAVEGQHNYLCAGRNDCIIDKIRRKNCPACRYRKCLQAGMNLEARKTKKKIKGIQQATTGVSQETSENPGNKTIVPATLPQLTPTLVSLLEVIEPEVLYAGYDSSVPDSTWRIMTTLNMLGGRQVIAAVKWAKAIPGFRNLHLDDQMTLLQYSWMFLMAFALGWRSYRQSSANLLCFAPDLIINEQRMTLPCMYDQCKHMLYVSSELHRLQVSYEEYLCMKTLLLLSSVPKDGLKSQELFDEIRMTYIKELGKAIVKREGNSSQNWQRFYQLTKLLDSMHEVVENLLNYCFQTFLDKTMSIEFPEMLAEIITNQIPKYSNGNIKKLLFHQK
Description: Antagonist activity at glucocorticoid receptor in human A549 cells assessed as inhibition of corticoid-induced GRE-linked luciferase reporter gene activity. In kind it is functional, cell-based. (Reporter assays use an easily measured gene product as a stand-in for the process of interest.)

Another test has as its target T2, Progesterone receptor (Homo sapiens, UniProt P06401).
T2 sequence (P06401 whole entry): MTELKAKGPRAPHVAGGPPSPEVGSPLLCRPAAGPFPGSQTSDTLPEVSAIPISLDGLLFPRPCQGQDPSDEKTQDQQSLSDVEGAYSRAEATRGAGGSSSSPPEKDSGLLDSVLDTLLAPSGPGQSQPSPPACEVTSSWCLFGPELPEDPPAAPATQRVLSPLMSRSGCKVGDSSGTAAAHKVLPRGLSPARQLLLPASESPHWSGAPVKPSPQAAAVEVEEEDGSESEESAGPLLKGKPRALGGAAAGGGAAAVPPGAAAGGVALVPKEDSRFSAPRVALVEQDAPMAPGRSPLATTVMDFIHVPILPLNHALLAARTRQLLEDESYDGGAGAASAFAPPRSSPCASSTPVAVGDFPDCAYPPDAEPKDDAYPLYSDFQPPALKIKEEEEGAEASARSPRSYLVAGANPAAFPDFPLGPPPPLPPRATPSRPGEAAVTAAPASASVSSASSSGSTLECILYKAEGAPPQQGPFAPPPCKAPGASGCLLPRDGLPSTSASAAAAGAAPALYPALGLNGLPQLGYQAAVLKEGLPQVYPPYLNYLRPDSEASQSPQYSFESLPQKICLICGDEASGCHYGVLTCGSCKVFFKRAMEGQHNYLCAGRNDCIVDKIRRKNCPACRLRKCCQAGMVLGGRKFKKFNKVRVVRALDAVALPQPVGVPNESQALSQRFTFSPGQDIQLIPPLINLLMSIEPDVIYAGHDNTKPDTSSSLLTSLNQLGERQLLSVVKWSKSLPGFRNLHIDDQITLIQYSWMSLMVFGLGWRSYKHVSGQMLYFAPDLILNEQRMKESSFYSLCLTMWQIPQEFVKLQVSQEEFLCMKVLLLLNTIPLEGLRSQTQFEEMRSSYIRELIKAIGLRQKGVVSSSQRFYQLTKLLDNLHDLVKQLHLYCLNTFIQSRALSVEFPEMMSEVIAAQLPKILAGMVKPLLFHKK
Description: Antagonist activity at progesterone receptor in human T47D cells assessed as inhibition of progesterone-induced alkaline phosphatase activity. In kind it is functional, cell-based.

For the next test, the species on record is Homo sapiens. Description: Selectivity for human progesterone receptor over human glucocorticoid receptor.

Each structure is given as a SMILES string.

This passage reports IC50 and Ratio IC50 results from ChEMBL document CHEMBL1144574, “Synthesis and identification of novel oxa-steroids as progesterone receptor antagonists” (Bioorg Med Chem Lett, 2007).

As usually defined, the IC50 is the midpoint of a concentration-inhibition curve. Take `CN(C)c1ccc([C@H]2C[C@@]3(C)[C@@H](CC[C@@]3(O)C#CC3CC3)[C@@H]3OCC4=CC(=O)CCC4=C32)cc1`: the 50% inhibitory concentration (IC50) on Glucocorticoid receptor is 33.4 nM; on Progesterone receptor it was 9.6 nM. In the test listed under Homo sapiens, the Ratio IC50 was 4.

Turning to `CN(C)CC#C[C@]1(O)CC[C@H]2[C@@H]3OCC4=CC(=O)CCC4=C3[C@@H](c3ccc(N(C)C)cc3)C[C@@]21C`, the figures for the IC50 on Glucocorticoid receptor and on Progesterone receptor were > 3000 nM and > 1000 nM, respectively.

In the case of `CN(C)c1ccc([C@H]2C[C@@]3(C)[C@@H](CC[C@@]3(O)C#Cc3ccccc3)[C@@H]3OCC4=CC(=O)CCC4=C32)cc1`, the IC50 on Glucocorticoid receptor was 304 nM; at Progesterone receptor, 1.4 nM. Besides, the Ratio IC50 in the test filed under Homo sapiens was determined as 217.

Take `C#C[C@]1(O)CC[C@H]2[C@@H]3OCC4=CC(=O)CCC4=C3[C@@H](c3ccc(N(C)C)cc3)C[C@@]21C`: the IC50 on Glucocorticoid receptor turned out to be 204 nM; at Progesterone receptor it was 19 nM. For the same compound, in the test listed under Homo sapiens, the Ratio IC50 came out at 11.

Regarding `CN(C)c1ccc([C@H]2C[C@@]3(C)[C@@H](CC[C@@]3(O)C#CC(C)(C)C)[C@@H]3OCC4=CC(=O)CCC4=C32)cc1`, the IC50 was determined as 167 nM on Glucocorticoid receptor and 185 nM at Progesterone receptor. Also, the Ratio IC50 in the test filed under Homo sapiens came out at 1.

As to `CN(C)c1ccc([C@H]2C[C@@]3(C)[C@@H](CC[C@@]3(O)C#CC(F)(F)F)[C@@H]3OCC4=CC(=O)CCC4=C32)cc1`, the IC50 on Glucocorticoid receptor came out at 55.5 nM; at Progesterone receptor, 9.3 nM. In addition, the Ratio IC50 in the test listed under Homo sapiens turned out to be 6.

Turning to `CN(C)c1ccc([C@H]2C[C@@]3(C)[C@@H](CC[C@@]3(O)C#CC(C)(C)O)[C@@H]3OCC4=CC(=O)CCC4=C32)cc1`, the IC50 on Glucocorticoid receptor is 558 nM; at Progesterone receptor, > 1000 nM.

Consider `CC#C[C@]1(O)CC[C@H]2[C@@H]3OCC4=CC(=O)CCC4=C3[C@@H](c3ccc(N(C)C)cc3)C[C@@]21C`, for which the IC50 came out at 86.5 nM on Glucocorticoid receptor and 7.5 nM on Progesterone receptor. The Ratio IC50 in the test listed under Homo sapiens came to 12.
